# Where two headings read alike, the source gives them in different places.
# What was measured:
# [1] = biological target: T1, Clonorchis sinensis omega-class glutathione transferase 1 (CsGSTo1) (Clonorchis sinensis, UniProt A0A192IBN1); test: biochemical; set-up: DHAR activity inhibition of recombinant CsGSTo, absorbance at 265 nm; Ki from Lineweaver-Burk plots
# T1 construct: full-length recombinant (246 amino acids), His-tag removed; GenBank KX163088
# T1 sequence (A0A192IBN1 1-246): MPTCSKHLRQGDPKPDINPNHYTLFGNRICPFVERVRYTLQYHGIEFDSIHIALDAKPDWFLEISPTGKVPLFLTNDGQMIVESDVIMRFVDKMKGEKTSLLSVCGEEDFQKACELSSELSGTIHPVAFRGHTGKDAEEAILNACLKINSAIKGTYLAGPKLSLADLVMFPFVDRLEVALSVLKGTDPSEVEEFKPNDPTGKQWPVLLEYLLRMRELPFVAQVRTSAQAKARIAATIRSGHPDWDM
# Method: (§1) We determined the inhibition mode of CsGSTos employing SHG and the anthelminthic drug praziquantel (PZQ; Shinpoong, Seoul, Korea). rCsGSTos (each 100 ng) were preincubated with Dulbecco’s PBS supplemented with 10–1,000 μM PZQ or 10–500 nM SHG for 2 min, after which the reaction was initiated by adding 1 mM GSH and 1 mM DHA. The increase in absorbance of the resulting […] was recorded spectrophotometrically at 265 nm. A set of reactions under identical conditions was done for each inhibitor concentration and for controls. To examine the inhibition mode of the specific active sites, rCsGSTos were preincubated with saturating concentrations of GSH (5 mM) for 2 min before conjugating reaction with varying concentrations of DHA (0.01–5 mM). […] All measurements were independently done in triplicate. Data were analyzed by Lineweaver-Burk plots. GST activity was spectrophotometrically determined employing a panel of substrates (Sigma-Aldrich); 1-chloro-2,4-dinitrobenzene (CDNB; pH 6.5, 340 nm), 1,2-dichloro-4-nitrobenzene (DCNB; pH 7.5, 345 nm), [compound left out] (4-NBC; pH 6.5, 310 nm), [compound left out] acetate (4-NPA; pH 7.0, 400 nm), 4-hydroxy nonenal (pH 7.5, 340 nm), cumene hydroperoxide (CHP; pH 6.5, 340 nm) and ethacrynic acid (pH 7.5, 340 nm). The reactions were recorded for 5 min at 25 °C in 100 mM potassium phosphate buffer (pH 7.2, 200 μl) containing each 4 mM substrate and 4 mM GSH. The formation of ascorbate by the glutathione-dependent DHAR was detected in potassium phosphate buffer (50 mM, pH 7.2) supplemented with 1 mM GSH and 0.25 mM dehydroascorbate (DHA) at 265 nm. Thioltransferase activity was assayed using hydroxylethyl disulfide (HEDS, 2 mM) in potassium phosphate buffer (50 mM, pH 7.2) containing 0.2 mM NADPH, 0.5 mM GSH and 0.5 units of glutathione reductase for 2 min at 340 nm. One unit of enzyme activity was defined as the amount of enzyme that catalyzed the formation of one micromole of product per min in the presence of respective substrates. Vmax and appKm were determined by one site saturation assays in ranges of 0.01–5 mM DHA with 5 mM GSH (saturating concentration). We also used variable concentrations of GSH ranging from 0.01–5.0 mM with 5 mM DHA (saturating concentration). Enzyme activity was monitored by changes of absorbance and was converted to specific activity using a molar extinction coefficient (Δε = 5.3). Non-enzymatic reaction was concomitantly monitored and subtracted from the entire reaction rate. All enzyme assays were independently performed in triplicate at 25 °C. Data were analyzed by best fit algorithm in SigmaPlot10.0.1 (Systat, San Diego, CA, USA). […] SHG might act via nucleophilic attack of the active site cysteine on the cysteinyl sulfur of the SHG to form a mixed disulfide with the DHA/GSH moiety with high affinity. […] PZQ might bind to a site other than the active- and glutathione-binding sites and act allosterically. We determined IC50 values of rCsGSTos against SHG and PZQ at a saturating concentration (IC50SC).
# [2] = biological target: T2, Clonorchis sinensis omega-class glutathione transferase 2 (CsGSTo2) (Clonorchis sinensis, UniProt G7YE46); test: biochemical; set-up: DHAR activity inhibition of recombinant CsGSTo, absorbance at 265 nm; Ki from Lineweaver-Burk plots; conditions: for Ki: non-competitive
# T2 construct: gene CLF_105746; full-length recombinant (223 amino acids), His-tag removed; GenBank KX163089
# T2 sequence (G7YE46 1-223): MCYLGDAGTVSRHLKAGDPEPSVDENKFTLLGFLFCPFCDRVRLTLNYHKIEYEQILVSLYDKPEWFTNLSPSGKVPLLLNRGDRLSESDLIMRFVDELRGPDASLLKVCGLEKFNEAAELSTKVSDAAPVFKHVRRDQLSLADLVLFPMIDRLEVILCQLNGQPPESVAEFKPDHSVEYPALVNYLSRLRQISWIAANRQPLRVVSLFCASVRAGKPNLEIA
# Method: as §1
# [3] = biological target: T2, Clonorchis sinensis omega-class glutathione transferase 2 (CsGSTo2); test: spectrophotometric GST activity of purified enzyme (specific activity); assay type: biochemical
# [4] = biological target: T1, Clonorchis sinensis omega-class glutathione transferase 1 (CsGSTo1); test: as above; assay type: biochemical
# [5] = substrate: O=C1O[C@H]([C@@H](O)CO)C(=O)C1=O; test: steady-state DHAR kinetics of purified enzyme (apparent Km); assay type: biochemical, Clonorchis sinensis; conditions: GSH
molecule,measurement,setting,value
"CCCCCCSC[C@H](NC(=O)CC[C@H](N)C(=O)O)C(=O)NCC(=O)O [SHG, S-hexylglutathione]",Ki,[1],0.00063 µM
"O=C(C1CCCCC1)N1CC(=O)N2CCc3ccccc3C2C1 (centres unmarked) [PZQ, praziquantel]",IC50,[1],108.4 ± 0.8 µM
same,Ki,"[1]; ligand binding site (varied GSH), non-competitive",46.8 µM
same,Ki,"[1]; specific active site (varied DHA), non-competitive",44.1 µM
same,IC50,[2],116.8 ± 0.7 µM
same,Ki,[2]; ligand binding site (varied GSH),42.8 µM
same,Ki,[2]; specific active site (varied DHA),38.2 µM
"O=[N+]([O-])c1ccc(CCl)cc1 [4-NBC, 4-nitrobenzyl chloride]",Specific activity (μmol/min/mg) / rGSTo2,[3],0.91 ± 0.24 µmol/min/mg
same,Specific activity (μmol/min/mg) / rGSTo1,[4],1.42 ± 0.09 µmol/min/mg
"Clonorchis sinensis omega-class glutathione transferase 1 (CsGSTo1) (Clonorchis sinensis) (protein, full-length recombinant (246 amino acids), His-tag removed; GenBank KX163088) MPTCSKHLRQGDPKPDINPNHYTLFGNRICPFVERVRYTLQYHGIEFDSIHIALDAKPDWFLEISPTGKVPLFLTNDGQMIVESDVIMRFVDKMKGEKTSLLSVCGEEDFQKACELSSELSGTIHPVAFRGHTGKDAEEAILNACLKINSAIKGTYLAGPKLSLADLVMFPFVDRLEVALSVLKGTDPSEVEEFKPNDPTGKQWPVLLEYLLRMRELPFVAQVRTSAQAKARIAATIRSGHPDWDM",Km,[5],210 ± 20 µM
same,Vmax,[5],1.16 ± 0.02 µmol/min/mg
same,kcat,[5],0.48 s⁻¹
same,kcat/Km,[5],2290 M⁻¹ s⁻¹
"Clonorchis sinensis omega-class glutathione transferase 2 (CsGSTo2) (Clonorchis sinensis) (protein, full-length recombinant (223 amino acids), His-tag removed; GenBank KX163089) MCYLGDAGTVSRHLKAGDPEPSVDENKFTLLGFLFCPFCDRVRLTLNYHKIEYEQILVSLYDKPEWFTNLSPSGKVPLLLNRGDRLSESDLIMRFVDELRGPDASLLKVCGLEKFNEAAELSTKVSDAAPVFKHVRRDQLSLADLVLFPMIDRLEVILCQLNGQPPESVAEFKPDHSVEYPALVNYLSRLRQISWIAANRQPLRVVSLFCASVRAGKPNLEIA",Km,[5],170 ± 20 µM
same,Vmax,[5],1.08 ± 0.02 µmol/min/mg
same,kcat,[5],0.43 s⁻¹
same,kcat/Km,[5],2530 M⁻¹ s⁻¹

# Reference: publication PMC4906895, “Clonorchis sinensis omega-class glutathione transferases play major roles in the protection of the reproductive system during maturation and the response to oxidative stress” (Parasites & Vectors, 2016)
